Test results published in publication PMC3961306, “Comparison of the Cancer Gene Targeting and Biochemical Selectivities of All Targeted Kinase Inhibitors Approved for Clinical Use” (PLoS ONE, 2014).
Read-outs that look alike come from different tables or passages of the source.

Legend:
[1] = tested on: forty-four human cancer cell lines; test: Cell proliferation assay (ATPlite, 72 hours) in the 44 cell line Oncolines panel; type: cell-based; settings: Homo sapiens
[2] = molecular target: panel of more than 300 wild-type and mutant kinases (313 kinase panel) (Homo sapiens, UniProt P11362, V561M); test: Kinase profiling in a biochemical assay panel (mobility shift assays and ELISA), %-inhibition at 1 μM; selectivity entropy; settings: kinase FGFR1(V561M); compound at 1 μM
[3] = molecular target: panel of more than 300 wild-type and mutant kinases (313 kinase panel) (Homo sapiens, UniProt P22612); test: as above; settings: kinase PKACγ; 1 μM
[4] = molecular target: panel of more than 300 wild-type and mutant kinases (313 kinase panel) (Homo sapiens, UniProt P00533, L858R); test: as above; settings: kinase EGFR(L858R); compound at 1 μM
[5] = molecular target: T1, panel of more than 300 wild-type and mutant kinases (313 kinase panel) (Homo sapiens, UniProt Q16832); test: as above; settings: kinase DDR2; compound at 1 μM
T1 sequence (Q16832 22-855): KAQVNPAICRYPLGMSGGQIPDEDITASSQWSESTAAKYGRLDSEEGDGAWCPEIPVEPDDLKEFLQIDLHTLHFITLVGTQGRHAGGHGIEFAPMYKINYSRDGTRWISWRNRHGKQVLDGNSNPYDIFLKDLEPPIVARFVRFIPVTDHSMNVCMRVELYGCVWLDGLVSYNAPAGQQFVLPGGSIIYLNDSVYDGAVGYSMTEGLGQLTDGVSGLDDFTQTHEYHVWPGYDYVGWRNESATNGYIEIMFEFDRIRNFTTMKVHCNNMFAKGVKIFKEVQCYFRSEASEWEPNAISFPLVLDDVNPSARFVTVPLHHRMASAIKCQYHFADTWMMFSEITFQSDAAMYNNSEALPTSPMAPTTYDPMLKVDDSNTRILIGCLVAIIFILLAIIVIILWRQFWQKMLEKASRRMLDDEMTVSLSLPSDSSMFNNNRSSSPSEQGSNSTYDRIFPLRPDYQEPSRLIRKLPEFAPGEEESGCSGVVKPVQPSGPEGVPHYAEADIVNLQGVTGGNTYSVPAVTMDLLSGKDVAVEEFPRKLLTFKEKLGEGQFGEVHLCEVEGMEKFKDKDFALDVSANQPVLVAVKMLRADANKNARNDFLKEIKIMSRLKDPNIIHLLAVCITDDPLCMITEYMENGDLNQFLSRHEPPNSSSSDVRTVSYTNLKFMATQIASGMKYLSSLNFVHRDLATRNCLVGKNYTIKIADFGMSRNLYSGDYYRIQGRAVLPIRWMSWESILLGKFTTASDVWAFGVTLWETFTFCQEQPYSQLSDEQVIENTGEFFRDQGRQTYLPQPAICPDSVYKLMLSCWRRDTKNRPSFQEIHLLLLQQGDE

[6] = molecular target: panel of more than 300 wild-type and mutant kinases (313 kinase panel) (Homo sapiens, UniProt Q00535); test: as above; settings: kinase CDK5/p25; 1 μM compound
[7] = molecular target: panel of more than 300 wild-type and mutant kinases (313 kinase panel) (Homo sapiens, UniProt P09619); test: as above; settings: kinase PDGFRβ; 1 μM
[8] = molecular target: panel of more than 300 wild-type and mutant kinases (313 kinase panel) (Homo sapiens, UniProt Q9UM73, R1275Q); test: as above; settings: kinase ALK(R1275Q); 1 μM compound
[9] = molecular target: panel of more than 300 wild-type and mutant kinases (313 kinase panel) (Homo sapiens, UniProt O95819); test: as above; settings: kinase HGK; compound at 1 μM
[10] = molecular target: panel of more than 300 wild-type and mutant kinases (313 kinase panel) (Homo sapiens, UniProt P00519, E255K); test: as above; settings: kinase ABL(E255K); 1 μM compound
[11] = molecular target: panel of more than 300 wild-type and mutant kinases (313 kinase panel) (Homo sapiens, UniProt P19525); test: as above; settings: kinase PKR; 1 μM

COc1cc2nccc(Oc3ccc(NC(=O)C4(C(=O)Nc5ccc(F)cc5)CC4)cc3)c2cc1OC [cabozantinib]
IC50 ([1]; 4-4 cell, read-out: cell panel IC50, J82): 22.9 µM
IC50 ([1]; 4-4 cell, read-out: cell panel IC50, PA-1): 17.8 µM
IC50 ([1]; 4-4 cell, read-out: cell panel IC50, SJCRH30): 15.2 µM
IC50 ([1]; 4-4 cell, read-out: cell panel IC50, SR): 24.5 µM
IC50 ([1]; 769-P, read-out: cell panel IC50, 769-P): 30 µM
IC50 ([1]; 786-0, read-out: cell panel IC50, 786-0): 28.7 µM
IC50 ([1]; A 172, read-out: cell panel IC50, A-172): 14.6 µM
IC50 ([1]; A204, read-out: cell panel IC50, A-204): 0.082 µM
IC50 ([1]; A498, read-out: cell panel IC50, A-498): 24.1 µM
IC50 ([1]; A549, read-out: cell panel IC50, A-549): 18.5 µM
IC50 ([1]; A-375, read-out: cell panel IC50, A375): > 31.6 µM
IC50 ([1]; A-427, read-out: cell panel IC50, A-427): 14.3 µM
IC50 ([1]; ACHN, read-out: cell panel IC50, ACHN): 20.9 µM
IC50 ([1]; AN3-CA, read-out: cell panel IC50, AN3 CA): 6.03 µM
IC50 ([1]; AU565, read-out: cell panel IC50, AU-565): 20.1 µM
IC50 ([1]; BT-20, read-out: cell panel IC50, BT-20): > 31.6 µM
IC50 ([1]; BT-549, read-out: cell panel IC50, BT-549): 30.3 µM
IC50 ([1]; BXPC-3, read-out: cell panel IC50, BxPC-3): 24.1 µM
IC50 ([1]; C-33-A, read-out: cell panel IC50, C-33 A): 19.7 µM
IC50 ([1]; CAL-27, read-out: cell panel IC50, CAL 27): 23.4 µM
IC50 ([1]; CCRF-CEM, read-out: cell panel IC50, CCRF-CEM): 19.5 µM
IC50 ([1]; DLD-1, read-out: cell panel IC50, DLD-1): 22.7 µM
IC50 ([1]; FaDu, read-out: cell panel IC50, FaDu): > 31.6 µM
IC50 ([1]; HCT-15, read-out: cell panel IC50, HCT-15): 21.9 µM
IC50 ([1]; HCT-116, read-out: cell panel IC50, HCT-116): 20.9 µM
IC50 ([1]; Hs-578T, read-out: cell panel IC50, Hs 578T): 24.2 µM
IC50 ([1]; Jurkat E6.1, read-out: cell panel IC50, Jurkat E6.1): 11.5 µM
IC50 ([1]; K562, read-out: cell panel IC50, K-562): 3.94 µM
IC50 ([1]; LS174T, read-out: cell panel IC50, LS 174T): > 31.6 µM
IC50 ([1]; LoVo, read-out: cell panel IC50, LoVo): 7.63 µM
IC50 ([1]; MG-63, read-out: cell panel IC50, MG-63): 15.6 µM
IC50 ([1]; MOLT-4, read-out: cell panel IC50, MOLT-4): 12.1 µM
IC50 ([1]; MeWo, read-out: cell panel IC50, MeWo): 29.8 µM
IC50 ([1]; NCI-H82, read-out: cell panel IC50, NCI-H82): 16.8 µM
IC50 ([1]; NCI-H460, read-out: cell panel IC50, NCI-H460): 28.1 µM
IC50 ([1]; OVCAR-3, read-out: cell panel IC50, OVCAR-3): > 31.6 µM
IC50 ([1]; RPMI-7951, read-out: cell panel IC50, RPMI-7951): 14.9 µM
IC50 ([1]; SHP77, read-out: cell panel IC50, SHP-77): > 31.6 µM
IC50 ([1]; SK-N-AS, read-out: cell panel IC50, SK-N-AS): 31 µM
IC50 ([1]; SW48, read-out: cell panel IC50, SW48): 12.5 µM
IC50 ([1]; SW480, read-out: cell panel IC50, SW480): 16.2 µM
IC50 ([1]; SW-620, read-out: cell panel IC50, SW620): 6.24 µM
IC50 ([1]; U2OS, read-out: cell panel IC50, U-2 OS): 19.3 µM
IC50 ([1]; U-87 MG, 72 h, read-out: IC50 in cell proliferation assay (table S5 cellpanel data)): 22.3 µM
%-inhibition of FGFR1(V561M) [2]: -2.45%
%-inhibition of PKACγ [3]: -2.59%
%-inhibition of EGFR(L858R) [4]: 30%
%-inhibition of DDR2 [5]: 99%
%-inhibition, CDK5/p25 [6]: -14%
%-inhibition of PDGFRβ [7]: 84%
%-inhibition, ALK(R1275Q) [8]: 79%
%-inhibition of HGK [9]: 21%
%-inhibition, ABL(E255K) [10]: 25%
%-inhibition of PKR [11]: -4.3%
